Measured values published in ChEMBL document CHEMBL1201862, “PubChem BioAssay data set” (2004).
Activity calls are given as the source filed them.

Assays:
[1] = target: Peroxisome proliferator-activated receptor gamma/Nuclear receptor coactivator 1 (Homo sapiens, UniProt P37231); assay: TR-FRET dose response biochemical High Throughput Screening assay for agonists of the steroid receptor coactivator 1 (SRC-1) recruitment by the peroxisome proliferator-activated receptor gamma (PPAR gamma): non-selective agonists. [Related pubchem assays (depositor defined):AID1300, AID1808, AID504735, AID631]; assay type: protein assay
[2] = target: Peroxisome proliferator-activated receptor gamma/Nuclear receptor coactivator 2 (Homo sapiens, UniProt P37231); assay: (§1) TR-FRET dose response biochemical High Throughput Screening assay for agonists of the steroid receptor coactivator 2 (SRC-2) recruitment by the peroxisome proliferator-activated receptor gamma (PPAR gamma): non-selective agonists. [Related pubchem assays: 1297, 1032 ]; assay type: functional
[3] = target: fMet-Leu-Phe receptor (Homo sapiens, UniProt P21462); assay: formyl peptide receptor binders – dose response (AID 519); assay type: functional
[4] = target: Peroxisome proliferator-activated receptor gamma/Nuclear receptor corepressor 2 (Homo sapiens, UniProt P37231+Q9Y618); assay type: functional
[5] = target: Peroxisome proliferator-activated receptor gamma/Nuclear receptor coactivator 3 (Homo sapiens, UniProt P37231); assay: as §1, with “3 (SRC-3)” for “2 (SRC-2)”, “1301 (Confirmation screen.), 1048 (Primary screen.)]” for “1297, 1032 ]”; assay type: functional
[6] = target: Photoreceptor-specific nuclear receptor (Homo sapiens, UniProt Q9Y5X4); assay type: functional;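 note: potency for compounds that break the NR2E3 corepressor complex and count as activators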
[7] = target: G-protein coupled receptor 35 (Homo sapiens, UniProt Q9HC97); assay: inhibition of zaprinast-stimulated GPR35 beta-arrestin translocation – imaging, U2OS, beta-arrestin-GFP, zaprinast agonist, primary screen (AID 2058); assay type: functional;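 note: antagonist potency meaning inhibition of agonist-induced arrestin redistribution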
[8] = Trypanosoma cruzi growth suppression in host cells – NIH3T3 host cells, beta-gal luminescence, confirmation (AID 2044); assay type: functional, cell-based;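 note: intracellular parasites grown in NIH/3T3 mouse fibroblasts as host cells; luminescent beta-galactosidase reporter signal from transgenic T. cruzi replicating inside host cells; inhibitors lower the luminescence signal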
[9] = viability of PTEN-deleted HCT116 cells – cell-based, HCT116 PTEN knockout, dose response (AID 1047); assay type: functional;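 note: HCT116 colon tumor cells with PTEN knocked out; cells exposed to compound for 60 hours before readout; potency for loss of cell viability measured by luminescence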
[10] = viability of HCT116 lacking mutant beta-catenin – cell-based, human colon tumor, dose response (AID 1045); assay type: functional;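 note: HCT116 colon tumor cells with beta catenin knocked out; cells exposed to compound for 60 hours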
[11] = NIH3T3 cell viability loss – ATP luminescence, mouse fibroblasts, counter-screen, dose response (AID 2010); assay type: functional, cell-based;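 note: cells exposed to compound for about 90 hours before reading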
[12] = test system: HeLa; assay: viability loss in HeLa cells – cell-based, 24 h, cherry-picked samples, cytotoxicity control, dose response (AID 504726); assay type: functional; conditions: Homo sapiens;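 note: potency for cytotoxicity as loss of luminescence signal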
[13] = luciferase reporter signal suppression in cells – H4 neuroglioma cells, luminescence, dose response (AID 1990); assay type: functional, cell-based
[14] = Luminescence Cell-Based Dose Response HTS to Identify Inhibitors of 5'UTR Stem-Loop Driven Prion Protein mRNA Translation in H4 Neuroglioblastoma Cells. [Related pubchem assays: 1827 (Project Summary), 1813 (Primary HTS)]; assay type: functional
[15] = luciferase reporter signal reduction – luminescence, H4-C neuroglioblastoma cells, dose response (AID 2458); assay type: functional, cell-based;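 note: H4 neuroglioblastoma cells stably carrying a luciferase reporter gene fusion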
[16] = cells; assay type: functional, cell-based
[17] = test system: J774.A1; assay: Confirmation of image-based Screening Assay for Inhibitors of Phagocytosis. [Related pubchem assays (depositor defined):AID1029, AID1643]; assay type: functional, cell-based; conditions: Mus musculus
[18] = alpha-synuclein stem-loop translation blockers – luminescence, H4 neuroglioblastoma cells, dose confirmation, confirmation (AID 2454); assay type: functional, cell-based;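 note: H4 neuroglioblastoma cells carrying an alpha-synuclein 5'UTR luciferase reporter; potency for inhibition of the luciferase signal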
[19] = alpha-synuclein stem-loop luciferase translation blockers – H4 neuroglioma cells, luminescence, confirmation (AID 1988); assay type: functional, cell-based
[20] = target: Intestinal-type alkaline phosphatase (Homo sapiens, UniProt P09923); assay: Dose Response confirmation of uHTS hits from a small molecule inhibitors of human intestinal alkaline phosphatase via a luminescent assay. [Related pubchem assays (depositor defined):AID2544, AID2574]; assay type: functional
[21] = target: Beta-galactosidase (Escherichia coli, UniProt Q8VNN2); assay: detection-enzyme interference by beta-gal modulators – biochemical, E. coli enzyme, set 3, artefact control for CCR6 antagonist project, dose response (AID 504712); assay type: functional
[22] = test system: Vero; assay: viability of Vero cells under compound – cytotoxicity control for flavivirus capping enzyme inhibitors (AID 588742); assay type: functional; conditions: Chlorocebus sabaeus

Sequence of Photoreceptor-specific nuclear receptor (Q9Y5X4 whole entry): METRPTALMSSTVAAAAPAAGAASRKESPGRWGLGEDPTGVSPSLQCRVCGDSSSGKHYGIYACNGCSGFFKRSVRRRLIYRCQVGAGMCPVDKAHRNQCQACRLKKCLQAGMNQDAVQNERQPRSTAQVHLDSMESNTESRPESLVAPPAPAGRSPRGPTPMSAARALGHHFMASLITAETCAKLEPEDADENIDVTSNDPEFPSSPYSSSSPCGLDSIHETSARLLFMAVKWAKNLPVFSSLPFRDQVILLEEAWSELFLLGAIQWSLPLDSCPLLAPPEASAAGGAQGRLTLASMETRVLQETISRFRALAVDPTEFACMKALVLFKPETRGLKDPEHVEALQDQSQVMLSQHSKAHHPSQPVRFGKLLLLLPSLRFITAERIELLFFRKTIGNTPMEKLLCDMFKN
Sequence of G-protein coupled receptor 35 (Q9HC97 whole entry): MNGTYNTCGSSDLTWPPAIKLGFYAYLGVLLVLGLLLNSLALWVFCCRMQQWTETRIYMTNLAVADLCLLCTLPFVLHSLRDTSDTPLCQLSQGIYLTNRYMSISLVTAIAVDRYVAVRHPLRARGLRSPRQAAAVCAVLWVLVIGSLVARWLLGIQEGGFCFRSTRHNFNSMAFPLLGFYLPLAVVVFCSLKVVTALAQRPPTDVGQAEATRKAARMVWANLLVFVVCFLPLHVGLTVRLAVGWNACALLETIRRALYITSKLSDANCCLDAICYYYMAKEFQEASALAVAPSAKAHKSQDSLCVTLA
Sequence of Beta-galactosidase (Q8VNN2 whole entry): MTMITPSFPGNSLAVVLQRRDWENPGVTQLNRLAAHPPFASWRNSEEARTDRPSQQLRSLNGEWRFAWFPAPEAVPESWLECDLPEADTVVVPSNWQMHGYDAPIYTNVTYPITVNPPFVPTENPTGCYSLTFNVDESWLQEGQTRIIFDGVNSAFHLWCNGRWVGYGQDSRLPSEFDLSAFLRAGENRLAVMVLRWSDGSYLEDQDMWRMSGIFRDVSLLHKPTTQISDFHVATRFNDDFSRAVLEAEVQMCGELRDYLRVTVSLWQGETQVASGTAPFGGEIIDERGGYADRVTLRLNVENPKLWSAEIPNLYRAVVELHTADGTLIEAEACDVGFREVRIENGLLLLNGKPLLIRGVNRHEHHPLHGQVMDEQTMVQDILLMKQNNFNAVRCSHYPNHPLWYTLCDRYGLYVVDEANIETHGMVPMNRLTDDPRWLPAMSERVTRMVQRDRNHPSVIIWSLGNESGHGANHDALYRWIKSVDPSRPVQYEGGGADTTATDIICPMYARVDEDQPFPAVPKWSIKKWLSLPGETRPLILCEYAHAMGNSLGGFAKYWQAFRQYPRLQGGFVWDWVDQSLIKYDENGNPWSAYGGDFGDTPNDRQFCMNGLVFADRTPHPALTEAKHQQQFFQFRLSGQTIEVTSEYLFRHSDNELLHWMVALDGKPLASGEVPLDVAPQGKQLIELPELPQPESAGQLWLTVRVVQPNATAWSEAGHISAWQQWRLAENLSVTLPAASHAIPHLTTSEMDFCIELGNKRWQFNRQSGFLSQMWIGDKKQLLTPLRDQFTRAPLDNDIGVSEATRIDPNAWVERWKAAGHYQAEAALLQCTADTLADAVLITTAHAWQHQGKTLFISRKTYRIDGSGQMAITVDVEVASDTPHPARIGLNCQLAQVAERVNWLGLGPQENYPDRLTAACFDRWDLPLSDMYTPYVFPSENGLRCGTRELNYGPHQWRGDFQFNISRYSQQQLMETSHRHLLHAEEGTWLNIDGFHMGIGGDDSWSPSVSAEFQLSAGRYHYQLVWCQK
Sequence of Intestinal-type alkaline phosphatase (P09923 whole entry): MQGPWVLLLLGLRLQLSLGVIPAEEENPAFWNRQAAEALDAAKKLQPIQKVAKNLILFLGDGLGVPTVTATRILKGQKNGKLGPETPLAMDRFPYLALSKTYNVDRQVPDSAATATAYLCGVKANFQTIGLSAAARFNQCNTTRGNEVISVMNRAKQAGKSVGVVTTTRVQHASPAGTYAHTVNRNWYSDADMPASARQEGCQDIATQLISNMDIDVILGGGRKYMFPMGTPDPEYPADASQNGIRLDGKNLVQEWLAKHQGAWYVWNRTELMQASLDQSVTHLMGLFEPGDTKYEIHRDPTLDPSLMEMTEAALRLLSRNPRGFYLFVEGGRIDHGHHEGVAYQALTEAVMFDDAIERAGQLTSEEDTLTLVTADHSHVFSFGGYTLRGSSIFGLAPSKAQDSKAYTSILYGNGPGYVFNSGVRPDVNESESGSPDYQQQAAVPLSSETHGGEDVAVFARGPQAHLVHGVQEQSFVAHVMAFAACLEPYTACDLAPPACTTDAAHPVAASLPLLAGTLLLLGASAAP
Sequence of Peroxisome proliferator-activated receptor gamma/Nuclear receptor coactivator 2 (P37231 whole entry): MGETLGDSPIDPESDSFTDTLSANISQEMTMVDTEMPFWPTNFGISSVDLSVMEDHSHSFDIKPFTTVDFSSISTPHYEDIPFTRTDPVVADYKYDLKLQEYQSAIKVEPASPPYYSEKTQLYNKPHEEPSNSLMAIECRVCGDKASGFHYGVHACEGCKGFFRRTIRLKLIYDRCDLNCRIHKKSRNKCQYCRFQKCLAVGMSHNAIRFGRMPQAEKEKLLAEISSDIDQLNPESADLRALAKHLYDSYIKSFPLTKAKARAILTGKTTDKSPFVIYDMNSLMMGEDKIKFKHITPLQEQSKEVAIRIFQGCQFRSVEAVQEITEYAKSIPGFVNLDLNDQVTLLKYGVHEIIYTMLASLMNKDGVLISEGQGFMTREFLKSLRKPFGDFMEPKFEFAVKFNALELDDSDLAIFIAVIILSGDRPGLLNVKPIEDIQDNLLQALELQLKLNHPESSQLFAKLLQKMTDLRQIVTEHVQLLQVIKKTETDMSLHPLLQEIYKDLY
Sequence of Peroxisome proliferator-activated receptor gamma/Nuclear receptor coactivator 2 (Q15596 whole entry, further chain): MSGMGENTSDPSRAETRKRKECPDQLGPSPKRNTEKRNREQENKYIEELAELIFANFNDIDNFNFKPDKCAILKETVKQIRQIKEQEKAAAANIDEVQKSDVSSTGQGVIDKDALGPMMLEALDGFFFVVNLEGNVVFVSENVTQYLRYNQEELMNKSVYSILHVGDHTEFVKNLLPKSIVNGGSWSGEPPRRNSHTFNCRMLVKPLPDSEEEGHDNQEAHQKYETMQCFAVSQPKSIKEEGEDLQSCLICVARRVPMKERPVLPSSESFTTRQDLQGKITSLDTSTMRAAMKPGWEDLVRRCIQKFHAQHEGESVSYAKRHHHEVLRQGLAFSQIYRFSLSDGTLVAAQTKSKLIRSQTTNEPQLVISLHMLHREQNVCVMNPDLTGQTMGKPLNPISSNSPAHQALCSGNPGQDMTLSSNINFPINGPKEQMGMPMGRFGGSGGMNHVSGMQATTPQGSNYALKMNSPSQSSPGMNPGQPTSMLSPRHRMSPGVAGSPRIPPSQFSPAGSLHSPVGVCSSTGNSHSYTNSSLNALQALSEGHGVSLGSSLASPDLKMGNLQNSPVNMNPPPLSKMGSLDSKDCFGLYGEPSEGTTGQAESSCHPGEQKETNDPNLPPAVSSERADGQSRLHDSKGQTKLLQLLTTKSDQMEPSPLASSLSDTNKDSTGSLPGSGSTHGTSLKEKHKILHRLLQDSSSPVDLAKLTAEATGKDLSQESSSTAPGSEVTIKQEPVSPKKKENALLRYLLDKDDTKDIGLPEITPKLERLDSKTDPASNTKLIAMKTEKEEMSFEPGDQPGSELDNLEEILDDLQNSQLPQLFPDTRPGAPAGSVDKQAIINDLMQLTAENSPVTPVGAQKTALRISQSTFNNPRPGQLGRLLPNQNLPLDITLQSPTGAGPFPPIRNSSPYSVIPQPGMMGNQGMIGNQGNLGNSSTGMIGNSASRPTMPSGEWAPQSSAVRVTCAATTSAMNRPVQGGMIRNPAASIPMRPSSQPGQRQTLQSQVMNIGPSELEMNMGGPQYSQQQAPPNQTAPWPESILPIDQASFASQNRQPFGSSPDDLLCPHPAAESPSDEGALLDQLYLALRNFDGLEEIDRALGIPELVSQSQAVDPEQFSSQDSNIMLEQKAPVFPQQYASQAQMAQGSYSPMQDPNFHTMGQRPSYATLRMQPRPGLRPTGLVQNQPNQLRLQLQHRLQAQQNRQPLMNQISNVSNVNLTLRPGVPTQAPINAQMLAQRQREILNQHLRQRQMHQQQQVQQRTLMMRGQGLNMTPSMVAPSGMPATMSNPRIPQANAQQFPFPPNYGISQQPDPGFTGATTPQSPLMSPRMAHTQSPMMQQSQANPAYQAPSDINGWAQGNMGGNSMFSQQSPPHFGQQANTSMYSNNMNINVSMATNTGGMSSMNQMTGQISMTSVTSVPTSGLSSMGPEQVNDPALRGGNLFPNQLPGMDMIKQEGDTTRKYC
Sequence of fMet-Leu-Phe receptor (P21462 whole entry): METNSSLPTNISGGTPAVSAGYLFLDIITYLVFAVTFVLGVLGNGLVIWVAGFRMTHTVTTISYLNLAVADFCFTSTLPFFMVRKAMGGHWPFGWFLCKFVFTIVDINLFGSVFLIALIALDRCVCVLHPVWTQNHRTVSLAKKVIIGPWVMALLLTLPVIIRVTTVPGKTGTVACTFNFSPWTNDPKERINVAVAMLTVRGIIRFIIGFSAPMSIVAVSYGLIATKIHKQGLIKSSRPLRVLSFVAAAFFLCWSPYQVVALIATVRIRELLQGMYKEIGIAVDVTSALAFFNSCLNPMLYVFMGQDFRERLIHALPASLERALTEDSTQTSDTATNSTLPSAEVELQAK

COc1cccc2cc(C(=O)C3=C(O)C(=O)N(Cc4ccco4)C3c3cccnc3)oc12 (configuration not stated)
EC50 [1]: > 79.4 µM (inactive)
EC50 [2]: > 79.4 µM (not active)
Ki [3]: > 66.7 µM (inactive)
IC50 [4]: 2.79 µM (active)
EC50 [5]: > 79.4 µM (not active)
IC50 [6]: > 39.8 µM (not active)

CCOc1ccc(NC(=O)C(C)Oc2ccccc2C(=O)Nc2ccc(C)c(Cl)c2)cc1 (configuration not stated)
IC50 [7]: 1.31 µM (active)
EC50 [8]: 2.06 µM (active)
EC50 [9]: 17.9 µM (active)
EC50 [10]: 19.6 µM (active)
EC50 [11]: > 60 µM (not active)

CCN(CCCNC(=O)Cn1cc2c(n1)CCCC2)c1cccc(C)c1
AC50 [12]: > 350 µM (inactive)

COc1ccc(NS(=O)(=O)c2cc(C)ccc2NC(=O)c2cc(C)oc2C)cc1
EC50 [13]: 7.02 µM (active)
EC50 [14]: 173 nM (active)
EC50 [15]: 651 nM (active)
EC50 [16]: 1.07 µM (active)
IC50 [17]: 63.2 nM (active)
EC50 [18]: 1.11 µM (active)
EC50 [19]: < 100 nM (active)

Cc1ccc(S(=O)(=O)N(CC(=O)Nc2ccc(C)cc2C)C(=O)N2CCN(C)CC2)cc1
IC50 [20]: > 100 µM (inactive)

O=C(N/N=C/c1cc([N+](=O)[O-])ccc1O)Nc1ccccc1
IC50 [21]: > 66.6 µM (inactive)
CC50 [22]: 35.1 µM (active)
